Patent US7498406B2, “Substantially cell membrane impermeable compound and use thereof” (priority 1999, dated 2009)

How the values were obtained:
BCE = experiment: Proliferation of cultured cells, 72 hr; format: cell-based, bovine; conditions: for IC50: 72 hr
Procedure: FIG. 18. Inhibition of proliferation and reduction in viability of BCE cells by GSAO. 15,000 (part A and B) or 50,000 (part C and D) BCE cells per well were seeded into gelatinised 24-well culture plates and allowed to attach for 24 hr (part A, B and D) or 72 hr (part C). The media was then replaced with DMEM containing 5% BCS and 0 to 1 mM GSAO or GSAA and either 1 ng per mL FGF-2 (part A) or 10 ng per mL VEGF (part B). In part D, the media was replaced with DMEM containing 5% BCS and 1 ng per mL FGF-2 and either 10 μM GSAO or GSAA. In part C, the media was replaced with DMEM containing 5% BCS and 0 to 1 mM GSAO or GSAA. Cells were cultured for 72 hr in parts A, B and C or for discrete times up to 48 hr in part D and then dispersed and counted. The dotted line in parts A, B and C indicate the cell number in control wells containing DMEM and 5% BCS which represented no to limited proliferation. The dotted line in part D represents no change in cell number over the 48 hr. The data points and errors represent the mean and range of duplicate wells.
BCE (Folkman et al. 1979), BAE, BxPC-3 (ATCC, Bethesda, Md.), HT1080 (Jiang et al., 1999), 3T3 (ATCC, Bethesda, Md.) and BVSM (Hogg et al., 1997) cells were harvested and cultured as indicated. Cells (0.5 mL of 30,000 or 100,000 cells per mL) were seeded into gelatinized 24-well culture plates (Corning Costar, Corning, N.Y.) in Dulbecco's Modified Eagle's Medium (DMEM, JHR Bioscience, Lenexa, Kans.) containing 10% fetal calf serum (FCS, Intergen Comp., Purchase, N.Y.) and 1% Glutamine Pen-Strep (GPS, Irvine Scientific, Santa Ana, Va.) and allowed to attach for 24 hr in 10% CO2 at 37° C. […] Cells were cultured for 0 to 72 hr in 10% CO2 at 37° C. then dispersed in trypsin/EDTA (GibcoBRL, Granc Island, N.Y.), resuspended in Coulter balanced electrolyte solution and counted with a Z1 Coulter counter (Coulter Corp., Miami, Fla.) in all experiments there were two control wells containing DMEM with 1% GPS and either 5% BCS for BCE cells, 2% BCS for BAE and BVSM cells, or 2% FCS for BxPC-3, HT1080 and 3T3 cells. […]

BAE = experiment: Viability of cultured cells, 72 hr; format: cell-based, bovine
Procedure: BCE (Folkman et al. 1979), BAE, BxPC-3 (ATCC, Bethesda, Md.), HT1080 (Jiang et al., 1999), 3T3 (ATCC, Bethesda, Md.) and BVSM (Hogg et al., 1997) cells were harvested and cultured as indicated. Cells (0.5 mL of 30,000 or 100,000 cells per mL) were seeded into gelatinized 24-well culture plates (Corning Costar, Corning, N.Y.) in Dulbecco's Modified Eagle's Medium (DMEM, JHR Bioscience, Lenexa, Kans.) containing 10% fetal calf serum (FCS, Intergen Comp., Purchase, N.Y.) and 1% Glutamine Pen-Strep (GPS, Irvine Scientific, Santa Ana, Va.) and allowed to attach for 24 hr in 10% CO2 at 37° C. The media was then replaced with DMEM and 1% GPS containing 0 to 1 mM GSAO or GSAA and either 5% bovine calf serum (BCS, HyClone, Logan, Utah) and 1 ng per mL FGF-2 (Genzyme, Cambridge, Mass.) or 5% BCS and 10 ng per mL VEGF (Genzyme, Cambridge, Mass.) for BCE cells, 5% or 10% BCS for BAE cells, 5% BCS for BVSM cells, and 5% FCS for BxPC-3, HT1080 and 3T3 cells. Cells were cultured for 0 to 72 hr in 10% CO2 at 37° C. then dispersed in trypsin/EDTA (GibcoBRL, Granc Island, N.Y.), resuspended in Coulter balanced electrolyte solution and counted with a Z1 Coulter counter (Coulter Corp., Miami, Fla.) in all experiments there were two control wells containing DMEM with 1% GPS and either 5% BCS for BCE cells, 2% BCS for BAE and BVSM cells, or 2% FCS for BxPC-3, HT1080 and 3T3 cells. […]

BxPC-3 tumours [1] = experiment: Tumour growth in mice, subcutaneous administration; format: in vivo, SCID mice; conditions: for inhibition of the rate of BxPC-3 tumour growth: subcutaneous
Procedure: FIG. 23. Inhibition of human pancreatic tumour growth by GSAO. BxPC-3 tumours were established in the proximal midline of female 7 to 9 week old SCID mice. When the tumours were ˜0.1 cm^3 in volume the mice were randomised into two groups and treated with either GSAA or GSAO at doses of 2 (part A) or 10 (part B) mg per kg per day in 0.2 mL of PBS containing 100 mM glycine. The compounds were administered subcutaneously at a site distant from the tumour. Tumour volume and animal weight was measured every 3 days. The GSAO/GSAA tumour volume ratio at day 26 of treatment with 2 mg per kg per day was 0.34 (part A). The GSAO/GSAA tumour volume ratio at day 31 of treatment with 10 mg per kg per day was 0.09 (part B). There were 4 mice per group in part A and 4 mice treated with GSAA and 5 with GSAO in part B. The mice and excised tumours from the experiment described in Part B at day 31 of treatment are shown in Part C. The data points and errors represent the mean and SE of the tumour volumes.
Female 7 to 9 week old SCID or C57Bl6/J mice were used (Massachusetts General Hospital, Boston, Mass.). Mice were held in groups of 3 to 5 at a 12 hour day and night cycle and were fed with animal chow and water ad libidum. SCID mice were anaesthetised by inhalation of isoflurane, the dorsal skin shaved and cleaned with ethanol, and a suspension of 2.5×10^6 BxPC-3 or HT1080 cells in 0.2 mL of DMEM was injected subcutaneously in the proximal midline. C57Bl6/J mice with Lewis lung carcinomas of 0.6-1.2 cm^3 volumes were sacrificed and the skin overlying the tumour was cleaned with betadine and ethanol. Tumour tissue was excised under aseptic conditions and a suspension of tumour cells in 0.9% saline was made by passage of tumour tissue through a sieve and a series of sequentially smaller 22- to 30-gauge hypodermic needles. C57Bl6/J mice were anaesthetised and prepared as for SCID mice and a suspension of Lewis lung carcinoma cells in 0.2 mL of saline was injected subcutaneously in the proximal midline. Tumours were allowed to establish and grow to a size of ˜0.1 cm^3 after which they were randomised into two groups. The tumours were measured in two diameters and tumour volume was calculated using the relationship, tumour volume=a×b^2×0.52, where a is the longest and b the shortest diameters in cm. Animals were treated with either GSAA or GSAO at doses of 2 or 10 mg per kg per day in 0.2 mL of PBS containing 100 mM glycine. The compounds were administered subcutaneously at a site distant from the tumour. Tumour volume and animal weight was measured every 3 days. The tumours were excised and weighed when the animals were sacrificed.

BxPC-3 tumours [2] = experiment: Tumour growth, continuous intraperitoneal administration by micro-osmotic pumps; format: in vivo, SCID mice; conditions: 10 mg per kg per day
Procedure: FIG. 27. Inhibition of human pancreatic carcinoma tumour growth by continuous intraperitoneal administration of GSAO. BxPC-3 tumours were established in the proximal midline of female 7 to 9 week old SCID mice. Mice bearing ˜0.1 g tumours were implanted with 14 day alzet model 1002 micro-osmotic pumps (ALZA Corporation, Palo Alto, Calif.) in the peritoneal cavity. The pumps contained 45 mg per mL GSAA or GSAO and delivered 10 mg per kg per day. The pumps were replaced after 14 days. Pump duration is indicated by the shaded bar. Tumour volume and animal weight was measured every 3 days.
SCID mice bearing subcutaneous human BxPC-3-pancreatic carcinoma tumours were implanted with 14 day micro-osmotic pumps in the peritoneal cavity. The pumps delivered 10 mg per kg per day GSAA or GSAO and were replaced after 14 days with fresh pumps. The rate of growth of the BxPC-3 tumours was inhibited in the mice receiving GSAO (FIG. 27). […] When the second pump was exhausted one of the halted tumours began to grow at about the same rate as the GSAA-treated tumour while the other tumour had resolved completely.

Structure (SMILES): NC(CCC(=O)NC(CSCC(=O)Nc1ccc([As]=O)cc1)C(=O)NCC(=O)O)C(=O)O (centres unmarked) [GSAO, 4-(N-(S-glutathionylacetyl)amino)-phenylarsenoxide]
- IC50 (BCE; 5% BCS + 1 ng/mL FGF-2): ~0.1 µM
- IC50 (BCE; 5% BCS + 10 ng/mL VEGF): ~0.05 µM
- IC50 (BAE; Bos taurus, 72 h, 10% BCS, >90% confluent): ~10 µM
- inhibition of the rate of BxPC-3 tumour growth (BxPC-3 tumours [1]; 2 mg per kg per day): ~70%
- inhibition of the rate of BxPC-3 tumour growth (BxPC-3 tumours [1]; 10 mg per kg per day): > 90%
- GSAO/GSAA tumour volume ratio (BxPC-3 tumours [1]; day 26 of treatment, 2 mg per kg per day): 0.34
- GSAO/GSAA tumour volume ratio (BxPC-3 tumours [1]; day 31 of treatment, 10 mg per kg per day): 0.09
- rate of BxPC-3 tumour growth (BxPC-3 tumours [2]): halted completely in two other mice
- slowing of tumour growth in one mouse (BxPC-3 tumours [2]): 50%

Structure (SMILES): N[C@@H](CCC(=O)N[C@@H](CSCC(=O)Nc1ccc([As](=O)(O)O)cc1)C(=O)NCC(=O)O)C(=O)O [GSAA, 4-(N-(S-glutathionylacetyl)amino)phenylarsonic acid, reference compound]
- effect on proliferation of BCE cells (BCE; highest concentration used, 1 mM): only a marginal effect on proliferation
- effect on viability of BAE cells (BAE; not shown): did not effect either proliferation or viability
- inhibition of the rate of BxPC-3 tumour growth (BxPC-3 tumours [1]; 2 mg per kg per day): no effect
- inhibition of the rate of BxPC-3 tumour growth (BxPC-3 tumours [1]; 10 mg per kg per day): < 20%
- rate of BxPC-3 tumour growth (BxPC-3 tumours [2]): no significant effect
